# The source made the active and inactive calls.
# What was measured:
# [1] = off-target signal loss in HeLa-CEM21 co-culture – HeLa F-luc CTL cells, cherry-picked, counter-screen for HIV-1 Env fusion inhibitor project, dose response (AID 652040); type: functional, cell-based;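 further: potency for signal decrease marking cytotoxic or nonspecific inhibition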
# HEK293 [2] = assay: inhibitors of LMP1-driven NF-kB reporter, dose response, cell-based, HEK293, luciferase, cherry-pick (AID 588343); type: functional; settings: Homo sapiens
# [3] = inhibitors of SNCA 5'UTR-driven reporter translation, confirmation, H4 neuroglioma cells, luminescence (AID 1988); type: functional, cell-based
# [4] = inhibitors of clade B AD8 Env fusion, dose response, cell-based, cherry-pick (AID 652062); type: functional;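 further: luciferase signal from cell-cell fusion driven by HIV-1 clade B AD8 Env; potency is for inhibitors of fusion seen as a drop in luminescence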
# HEK293 [5] = assay: cytotoxicity in HEK293T NF-kB-Luc cells, SAR follow-up, cytotoxicity control for NF-kB activator project, cell-based, resazurin fluorescence (AID 493251); type: functional; settings: Homo sapiens
# [6] = ZM109 Env clade C HIV-1 fusion inhibitors, dose response, HeLa effector, CEM target cells, luciferase, cherry-pick (AID 652058); type: functional, cell-based
# HEK293 [7] = assay: PMA/Ionomycin induced NF-kB luciferase assay in 293- NF-kB-Luc stable cells. [Related pubchem assays: 1299, 1270, 1295, 1375, 1287, 1281, 1293, 1291, 1289, 1280, 465, 1364, 1282, 1372, 1365, 1370, 1367, 1366, 1269, 1373, 1292, 1290, 1302, 1371, 1283, 1271, 1294, 1374, 1368, 1369 ]; type: functional, cell-based; settings: Homo sapiens
# cells = type: functional, cell-based
# [8] = molecular target: T1, Luciferin 4-monooxygenase (Photinus pyralis, UniProt P08659); assay: In vitro luciferase assay using purified luciferase. [Related pubchem assays: 1299, 1270, 1295, 1375, 1287, 1281, 1293, 1291, 1289, 1280, 465, 1364, 1282, 1372, 1365, 1370, 1367, 1366, 1266, 1373, 1292, 1290, 1302, 1371, 1283, 1271, 1294, 1374, 1368, 1369 ]
# [9] = Luminescence-based counterscreen assay for KLF5 inhibitors: dose response cell-based high throughput screening assay to identify cytotoxic compounds using the IEC-6 intestinal epithelial cell line. [Related pubchem assays: 1700 (Primary screen.), 1834 (Confirmation screen.), 1858 (Summary AID.), 1905 (Counterscreen.)]; type: functional
# HT-1080 = assay: cytotoxicity in HT1080 fibrosarcoma cells, cell-based, fluorescence readout (AID 620); type: functional; settings: Homo sapiens
# [10] = inhibitors of SNCA 5'UTR-driven translation, confirmation, luminescence, H4 neuroglioblastoma cells, dose confirmation (AID 2454); type: functional, cell-based;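 further: H4 neuroglioblastoma cells carrying an alpha-synuclein 5'UTR luciferase reporter; potency for inhibition of the luciferase signal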
# [11] = luciferase reporter signal reduction – luminescence, H4-C neuroglioblastoma cells, dose response (AID 2458); type: functional, cell-based;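 further: H4 neuroglioblastoma cells stably carrying a luciferase reporter gene fusion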
# Jurkat = assay: SAR Analysis of small molecule inhibitors of T-cell specific antigen receptor-induced NF-kB activation in a Jurkat cell line using a luminescence assay - Set 2. [Related pubchem assays (depositor defined):AID435003, AID435012, AID465]; type: functional, cell-based; settings: Homo sapiens
# [12] = inhibitors of HIV Env-driven cell fusion, dose response, cherry-pick (AID 652057); type: functional, cell-based
# HEK293 [13] = assay: Cytotoxicity assay in HEK293 cells. [Related pubchem assays (depositor defined):AID1266, AID1269, AID1270, AID1271, AID1280, AID1281, AID1282, AID1283, AID1287, AID1289, AID1290, AID1291, AID1292, AID1293, AID1294, AID1295, AID1299, AID1302, AID1364, AID1365, AID1366, AID1367, AID1369, AID1370, AID1371, AID1372, AID1373, AID1374, AID1375, AID1384 …; type: functional, cell-based; settings: Homo sapiens
# [14] = cytotoxicity in HEK-293T cells, dose response, cytotoxicity control for BCR NF-kB inhibitor project, luminescence, B-cell screen hits (AID 489021); type: functional, cell-based;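 further: HEK-293T cells carrying an NF-kB luciferase reporter; cells exposed to compound for about 14 hours before viability readout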
# HEK293 [15] = assay: TNF Induced NF-kB Luciferase in 293-NF-kB-Luc Stable Cells. [Related pubchem assays: 1266, 1299, 1269, 1373, 1292, 1290, 1302, 1371, 1283, 1270, 1295, 1271, 1375, 1294, 1374, 1281, 1293, 1291, 1289, 1280, 465, 1368, 1364, 1282, 1372, 1365, 1369, 1370, 1367, 1366 ]; type: functional, cell-based; settings: Homo sapiens
# HEK293 [16] = assay: SAR Analysis of small molecule inhibitors of T-cell specific antigen receptor-induced NF-kB activation in a HEK-293T cell line using a luminescence assay - Set 2. [Related pubchem assays (depositor defined):AID435003, AID435012, AID489026]; type: functional, cell-based; settings: Homo sapiens
# [17] = molecular target: T1, Luciferin 4-monooxygenase; assay: Counter Screen for Luciferase-based Assay Positives. [Related pubchem assays: 620, 618, 411 ]
# [18] = inhibitors of firefly luciferase expression or activity, dose response, H4 neuroglioma cells, luminescence (AID 1990); type: functional, cell-based
# [19] = molecular target: T2, Sentrin-specific protease 8 (Homo sapiens, UniProt Q96LD8); assay: SENP8 protease inhibitors, SAR follow-up, biochemical, luminescence (AID 504501); type: functional
# T2 sequence (Q96LD8 whole entry): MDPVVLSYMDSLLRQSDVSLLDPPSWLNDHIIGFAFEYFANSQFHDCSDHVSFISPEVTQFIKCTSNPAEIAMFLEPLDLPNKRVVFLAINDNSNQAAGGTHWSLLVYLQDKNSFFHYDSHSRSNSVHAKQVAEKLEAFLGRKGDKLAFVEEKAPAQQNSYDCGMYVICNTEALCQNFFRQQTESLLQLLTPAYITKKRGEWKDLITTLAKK
# [20] = molecular target: T3, Sentrin-specific protease 6 (Homo sapiens, UniProt Q9GZR1); assay: SAR Analysis of small molecule inhibitors of Sentrin-specific protease 6 (SENP6) using a Luminescent assay. [Related pubchem assays (depositor defined):AID2582, AID2599]; type: functional
# T3 sequence (Q9GZR1 whole entry): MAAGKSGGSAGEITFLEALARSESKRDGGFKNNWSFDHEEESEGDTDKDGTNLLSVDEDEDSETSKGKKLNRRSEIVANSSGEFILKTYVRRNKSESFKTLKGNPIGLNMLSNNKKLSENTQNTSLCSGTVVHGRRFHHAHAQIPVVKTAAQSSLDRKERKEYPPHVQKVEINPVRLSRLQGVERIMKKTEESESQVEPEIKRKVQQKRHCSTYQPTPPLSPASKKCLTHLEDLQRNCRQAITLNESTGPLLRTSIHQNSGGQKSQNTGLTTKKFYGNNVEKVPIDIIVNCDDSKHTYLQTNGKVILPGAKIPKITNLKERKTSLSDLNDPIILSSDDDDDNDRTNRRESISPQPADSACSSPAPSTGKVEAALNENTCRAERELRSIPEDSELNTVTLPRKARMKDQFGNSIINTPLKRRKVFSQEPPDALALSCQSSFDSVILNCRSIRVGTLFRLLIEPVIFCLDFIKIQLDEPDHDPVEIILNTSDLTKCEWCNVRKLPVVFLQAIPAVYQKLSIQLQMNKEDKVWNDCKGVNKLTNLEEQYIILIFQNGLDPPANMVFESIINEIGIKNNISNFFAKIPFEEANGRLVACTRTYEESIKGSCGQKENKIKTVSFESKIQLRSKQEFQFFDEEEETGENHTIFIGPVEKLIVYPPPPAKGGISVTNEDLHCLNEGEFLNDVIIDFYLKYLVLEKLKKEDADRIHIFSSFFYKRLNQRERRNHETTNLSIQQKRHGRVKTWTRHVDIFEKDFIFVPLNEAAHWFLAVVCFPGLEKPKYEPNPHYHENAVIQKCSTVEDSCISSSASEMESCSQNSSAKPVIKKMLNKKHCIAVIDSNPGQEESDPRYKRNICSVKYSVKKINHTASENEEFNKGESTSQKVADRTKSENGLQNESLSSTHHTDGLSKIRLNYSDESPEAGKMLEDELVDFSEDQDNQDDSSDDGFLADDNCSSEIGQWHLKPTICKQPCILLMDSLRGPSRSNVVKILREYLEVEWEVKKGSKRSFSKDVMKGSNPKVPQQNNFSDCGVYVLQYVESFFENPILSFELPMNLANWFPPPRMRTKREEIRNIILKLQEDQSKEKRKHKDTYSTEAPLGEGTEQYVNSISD
# [21] = molecular target: T4, Sentrin-specific protease 7 (Homo sapiens, UniProt Q9BQF6); assay: SENP7 protease inhibitors, SAR follow-up, biochemical, luminescence (AID 504497); type: functional
# T4 sequence (Q9BQF6 whole entry): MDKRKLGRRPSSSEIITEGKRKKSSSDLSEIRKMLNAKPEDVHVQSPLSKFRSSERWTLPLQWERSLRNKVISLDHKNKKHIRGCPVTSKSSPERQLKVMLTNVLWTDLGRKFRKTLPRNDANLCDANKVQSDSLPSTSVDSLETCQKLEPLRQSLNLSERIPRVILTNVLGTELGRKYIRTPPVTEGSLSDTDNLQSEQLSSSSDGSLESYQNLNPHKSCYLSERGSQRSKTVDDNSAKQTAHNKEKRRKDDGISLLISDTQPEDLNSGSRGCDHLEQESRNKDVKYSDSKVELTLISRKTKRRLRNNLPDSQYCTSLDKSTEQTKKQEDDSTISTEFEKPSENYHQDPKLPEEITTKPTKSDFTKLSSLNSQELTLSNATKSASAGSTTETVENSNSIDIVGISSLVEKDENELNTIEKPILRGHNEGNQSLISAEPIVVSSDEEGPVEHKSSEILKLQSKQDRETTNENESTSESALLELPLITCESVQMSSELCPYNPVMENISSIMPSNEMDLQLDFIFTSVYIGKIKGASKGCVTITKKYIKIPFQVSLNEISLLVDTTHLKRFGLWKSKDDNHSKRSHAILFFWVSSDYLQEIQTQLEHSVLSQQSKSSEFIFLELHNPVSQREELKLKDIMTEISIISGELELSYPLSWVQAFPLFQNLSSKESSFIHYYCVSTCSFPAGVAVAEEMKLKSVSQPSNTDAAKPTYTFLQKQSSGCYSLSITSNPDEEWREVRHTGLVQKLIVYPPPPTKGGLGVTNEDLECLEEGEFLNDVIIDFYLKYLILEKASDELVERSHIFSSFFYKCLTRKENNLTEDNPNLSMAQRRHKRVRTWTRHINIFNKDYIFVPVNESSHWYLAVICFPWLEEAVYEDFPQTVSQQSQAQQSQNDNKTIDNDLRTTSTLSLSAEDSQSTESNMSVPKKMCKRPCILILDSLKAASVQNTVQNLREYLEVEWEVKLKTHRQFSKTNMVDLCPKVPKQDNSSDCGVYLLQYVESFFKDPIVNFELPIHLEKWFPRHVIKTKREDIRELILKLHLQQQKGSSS
# Caspase-3 = molecular target: T5, Caspase-3 (Homo sapiens, UniProt P42574); assay: SAR Analysis of small molecule inhibitors of Sentrin-specific proteases (SENPs) using a Caspase-3 Selectivity assay. [Related pubchem assays (depositor defined):AID2540, AID2599, AID434973, AID489001]; type: functional
# T5 sequence (P42574 whole entry): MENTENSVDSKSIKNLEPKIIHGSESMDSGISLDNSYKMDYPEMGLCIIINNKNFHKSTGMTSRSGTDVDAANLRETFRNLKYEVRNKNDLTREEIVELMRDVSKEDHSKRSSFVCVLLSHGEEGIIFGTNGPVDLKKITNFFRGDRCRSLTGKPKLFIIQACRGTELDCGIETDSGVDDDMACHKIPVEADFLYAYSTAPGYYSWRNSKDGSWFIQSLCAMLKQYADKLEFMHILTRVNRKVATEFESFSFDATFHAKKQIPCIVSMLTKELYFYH
# [22] = molecular target: Latent membrane protein 1 (Human herpesvirus 4 (strain B95-8), UniProt P03230); assay: TES1-eGFP NF-kB reporter inhibition versus Tet-On dsRED, dose response, selectivity assay for LMP1 NF-kB inhibitor project, imaging, HEK293T, dual-color eGFP/dsRED, cherry-picks (AID 588398); type: functional, cell-based
# [23] = HEp-2 cell cytotoxicity, dose response, cytotoxicity control for RSV inhibitor project, HTS (AID 2410); type: functional; settings: human respiratory syncytial virus
# T1 sequence (P08659 whole entry): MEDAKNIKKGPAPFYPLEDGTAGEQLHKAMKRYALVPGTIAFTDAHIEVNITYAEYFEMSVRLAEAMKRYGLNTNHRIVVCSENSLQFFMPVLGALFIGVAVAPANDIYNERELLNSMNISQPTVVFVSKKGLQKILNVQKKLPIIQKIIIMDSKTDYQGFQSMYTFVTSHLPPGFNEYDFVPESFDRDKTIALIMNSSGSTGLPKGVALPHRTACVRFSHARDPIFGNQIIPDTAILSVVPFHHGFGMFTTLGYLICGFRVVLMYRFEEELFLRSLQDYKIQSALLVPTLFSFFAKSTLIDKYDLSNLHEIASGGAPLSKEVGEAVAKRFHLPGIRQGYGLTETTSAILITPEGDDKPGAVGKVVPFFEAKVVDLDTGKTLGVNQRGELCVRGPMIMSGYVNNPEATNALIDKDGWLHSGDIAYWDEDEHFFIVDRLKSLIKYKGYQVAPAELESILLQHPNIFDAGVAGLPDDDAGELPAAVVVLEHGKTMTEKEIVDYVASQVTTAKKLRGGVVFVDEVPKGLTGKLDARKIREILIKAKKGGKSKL
# Latent membrane protein 1, sequence (P03230 whole entry): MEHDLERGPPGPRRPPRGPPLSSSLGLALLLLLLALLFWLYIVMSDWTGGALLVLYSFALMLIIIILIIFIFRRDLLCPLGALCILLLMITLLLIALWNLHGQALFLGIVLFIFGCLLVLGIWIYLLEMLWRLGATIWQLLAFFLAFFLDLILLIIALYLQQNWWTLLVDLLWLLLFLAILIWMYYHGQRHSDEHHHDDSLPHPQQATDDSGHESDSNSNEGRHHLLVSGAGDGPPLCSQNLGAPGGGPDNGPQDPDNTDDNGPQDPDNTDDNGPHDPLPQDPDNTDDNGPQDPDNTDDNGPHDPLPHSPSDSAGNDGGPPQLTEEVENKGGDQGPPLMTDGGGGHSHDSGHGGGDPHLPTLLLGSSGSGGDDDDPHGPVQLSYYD
smiles,measurement,setting,value
CC(C)(C)c1ccc(-c2noc(CCC(N)=O)n2)cc1,AC50,[1],< 0.26 µM (active)
same,AC50,HEK293 [2],0.401 µM (active)
same,EC50,[3],< 0.1 µM (active)
same,AC50,[4],< 0.26 µM (active)
same,IC50,HEK293 [5],> 80 µM (inactive)
same,AC50,[6],< 0.26 µM (active)
same,EC50,HEK293 [7],0.443 µM (active)
same,EC50,cells,0.517 µM (active)
same,EC50,[8],> 8 µM (not active)
same,IC50,[9],> 39.8 µM (not active)
same,EC50,HT-1080,> 50 µM (not active)
same,EC50,[10],0.203 µM (active)
same,EC50,[11],0.47 µM (active)
same,IC50,Jurkat,0.26 µM (active)
same,AC50,[12],0.344 µM (active)
same,EC50,HEK293 [13],14.9 µM (inactive)
same,IC50,[14],> 80 µM (inactive)
same,EC50,HEK293 [15],0.528 µM (active)
same,IC50,HEK293 [16],0.48 µM (active)
same,EC50,[17],16.5 µM (active)
same,EC50,[18],< 0.1 µM (active)
CCc1cccc2c(C(=O)CN3C(=O)c4ccccc4S3(=O)=O)c[nH]c12,IC50,[19],> 99 µM (inactive)
same,IC50,[20],> 99 µM (inactive)
same,IC50,[21],> 99 µM (inactive)
same,IC50,Caspase-3,> 99 µM (inactive)
CCn1c2ccccc2c2cc(/C=N/n3cnnc3)ccc21,AC50,HEK293 [2],11.5 µM (active)
same,AC50,[22],4.05 µM (active)
same,CC50,[23],18.2 µM (active)
